Tests used:
ZAP-70 = target: T1, ZAP-70 (Homo sapiens, UniProt P43403); experiment: ZAP-70 kinobeads assay; type: binding; conditions: cell lysate
T1 construct: endogenous in cells; host or cells: cell lysate
T1 sequence (P43403 1-619): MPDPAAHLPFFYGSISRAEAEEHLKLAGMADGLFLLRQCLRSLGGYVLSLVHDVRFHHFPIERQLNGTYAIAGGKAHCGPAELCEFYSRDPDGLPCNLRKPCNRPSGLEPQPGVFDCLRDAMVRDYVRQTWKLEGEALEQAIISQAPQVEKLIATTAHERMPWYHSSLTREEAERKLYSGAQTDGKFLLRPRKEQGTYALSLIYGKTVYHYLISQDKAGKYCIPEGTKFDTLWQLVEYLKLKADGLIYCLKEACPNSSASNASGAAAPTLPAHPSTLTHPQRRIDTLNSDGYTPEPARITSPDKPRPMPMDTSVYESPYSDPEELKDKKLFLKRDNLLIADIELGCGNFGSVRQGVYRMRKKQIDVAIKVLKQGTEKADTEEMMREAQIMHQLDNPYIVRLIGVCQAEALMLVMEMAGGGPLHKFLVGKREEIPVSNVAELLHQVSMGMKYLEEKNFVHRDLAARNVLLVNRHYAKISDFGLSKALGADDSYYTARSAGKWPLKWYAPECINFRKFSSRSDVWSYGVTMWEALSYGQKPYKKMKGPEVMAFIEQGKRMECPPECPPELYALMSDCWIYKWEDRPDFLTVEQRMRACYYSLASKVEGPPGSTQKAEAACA
Outline: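 Competition binding: compounds at various concentrations incubated with cell lysate plus affinity matrix bearing immobilized aminopyrido-pyrimidine ligand 24. ZAP-70 retained on beads eluted and quantified by specific-antibody dot blot with infrared detection.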

[1] = tested on: Calcium Ion Release in Cells; experiment: calcium release assay (measurement of calcium ion release in cells); type: cell-based; conditions: calcium release assay as described in WO-A 2009/080638

Structure (SMILES) | IC50 (ZAP-70) [nM] | IC50 [1] [nM]
COc1ccc(Nc2nc(Nc3cnc(C)cc3C)ncc2Cl)c(NS(C)(=O)=O)c1 [Example 71, N-(2-(5-chloro-2-(4,6-dimethylpyridin-3-ylamino)pyrimidin-4-ylamino)-5-methoxyphenyl)methanesulfonamide] | ≤ 100 | ≤ 1000
COc1ccc(Nc2nc(Nc3ccncc3F)ncc2Cl)c(NS(C)(=O)=O)c1 [Example 72, N-(2-(5-chloro-2-(3-fluoropyridin-4-ylamino)pyrimidin-4-ylamino)-5-methoxyphenyl)methanesulfonamide] | 100 to 1000 | ≤ 1000
COc1ccc(Nc2nc(Nc3ccc(OCCO)cc3C)ncc2Cl)c(NS(C)(=O)=O)c1 [Example 73, N-(2-(5-chloro-2-(4-(2-hydroxyethoxy)-2-methylphenylamino)pyrimidin-4-ylamino)-5-methoxyphenyl)methanesulfonamide] | ≤ 100 | ≤ 1000
COc1ccc(Nc2nc(Nc3cnc(OC)cc3C)ncc2Cl)c(NS(C)(=O)=O)c1 [Example 74, N-(2-(5-chloro-2-(6-methoxy-4-methylpyridin-3-ylamino)pyrimidin-4-ylamino)-5-methoxyphenyl)methanesulfonamide] | 100 to 1000 | ≤ 1000
COc1ccc(Nc2nc(Nc3ccc(C)nc3C)ncc2Cl)c(NS(C)(=O)=O)c1 [Example 75, N-(2-(5-chloro-2-(2,6-dimethylpyridin-3-ylamino)pyrimidin-4-ylamino)-5-methoxyphenyl)methanesulfonamide] | ≤ 100 | ≤ 1000
COc1ccc(Nc2nc(Nc3ccncc3OC)ncc2Cl)c(NS(C)(=O)=O)c1 [Example 76, N-(2-(5-chloro-2-(3-methoxypyridin-4-ylamino)pyrimidin-4-ylamino)-5-methoxyphenyl)methanesulfonamide] | 100 to 1000 | ≤ 1000
COc1ccc(Nc2nc(Nc3cccnc3C)ncc2Cl)c(NS(C)(=O)=O)c1 [Example 77, N-(2-(5-chloro-2-(2-methylpyridin-3-ylamino)pyrimidin-4-ylamino)-5-methoxyphenyl)methanesulfonamide] | 100 to 1000 | ≤ 1000
COc1ccc(Nc2nc(Nc3cccnc3OC)ncc2Cl)c(NS(C)(=O)=O)c1 [Example 79, N-(2-(5-chloro-2-(2-methoxypyridin-3-ylamino)pyrimidin-4-ylamino)-5-methoxyphenyl)methanesulfonamide] | 100 to 1000 | ≤ 1000
COc1ccc(Nc2nc(Nc3ccnc(C)c3C)ncc2Cl)c(NS(C)(=O)=O)c1 [Example 80, N-(2-(5-chloro-2-(2,3-dimethylpyridin-4-ylamino)pyrimidin-4-ylamino)-5-methoxyphenyl)methanesulfonamide] | 100 to 1000 | ≤ 1000
COc1ccc(Nc2nc(Nc3cnc(OCCO)cc3OC)ncc2Cl)c(NS(C)(=O)=O)c1 [Example 83, N-(2-(5-chloro-2-(6-(2-hydroxyethoxy)-4-methoxypyridin-3-ylamino)pyrimidin-4-ylamino)-5-methoxyphenyl)methanesulfonamide] | ≤ 100 | ≤ 1000
COc1ccc(Nc2nc(Nc3cnc(OCCO)cc3C)ncc2Cl)c(NS(C)(=O)=O)c1 [Example 85, N-(2-(5-chloro-2-(6-(2-hydroxyethoxy)-4-methylpyridin-3-ylamino)pyrimidin-4-ylamino)-5-methoxyphenyl)methanesulfonamide] | 100 to 1000 | ≤ 1000
COc1ccc(Nc2nc(Nc3cc(OCCCO)ccc3C)ncc2Cl)c(NS(C)(=O)=O)c1 [Example 87, N-(2-(5-chloro-2-(5-(3-hydroxypropoxy)-2-methylphenylamino)pyrimidin-4-ylamino)-5-methoxyphenyl)methanesulfonamide] | 100 to 1000 | ≤ 1000
COc1ccc(Nc2nc(Nc3cc(OCCO)ccc3C)ncc2Cl)c(NS(C)(=O)=O)c1 [Example 88, N-(2-(5-chloro-2-(5-(2-hydroxyethoxy)-2-methylphenylamino)pyrimidin-4-ylamino)-5-methoxyphenyl)methanesulfonamide] | ≤ 100 | ≤ 1000
COc1ccc(Nc2nc(Nc3ccc(OCC(N)=O)cc3OC)ncc2Cl)c(NS(C)(=O)=O)c1 [Example 89, 2-(4-((5-chloro-4-((4-methoxy-2-(methylsulfonamido)phenyl)amino)pyrimidin-2-yl)amino)-3-methoxyphenoxy)acetamide] | ≤ 100 | ≤ 1000
COc1ccc(Nc2nc(Nc3cccc(OCCF)c3C)ncc2Cl)c(NS(C)(=O)=O)c1 [Example 92, N-(2-(5-chloro-2-(3-(2-fluoroethoxy)-2-methylphenylamino)pyrimidin-4-ylamino)-5-methoxyphenyl)methanesulfonamide] | 100 to 1000 | ≤ 1000
COc1ccc(Nc2nc(Nc3cccc(OCC(C)O)c3C)ncc2Cl)c(NS(C)(=O)=O)c1 (stereo not shown) [Example 93, N-(2-((5-chloro-2-((3-(2-hydroxypropoxy)-2-methylphenyl)amino)pyrimidin-4-yl)amino)-5-methoxyphenyl)methanesulfonamide] | 100 to 1000 | ≤ 1000
COc1ccc(Nc2nc(Nc3cccc(OCCCO)c3C)ncc2Cl)c(NS(C)(=O)=O)c1 [Example 94, N-(2-((5-chloro-2-((3-(3-hydroxypropoxy)-2-methylphenyl)amino)pyrimidin-4-yl)amino)-5-methoxyphenyl)methanesulfonamide] | 100 to 1000 | ≤ 1000
COc1ccc(Nc2nc(Nc3cccc(OCC(C)(C)O)c3C)ncc2Cl)c(NS(C)(=O)=O)c1 [Example 95, N-(2-((5-chloro-2-((3-(2-hydroxy-2-methylpropoxy)-2-methylphenyl)amino)pyrimidin-4-yl)amino)-5-methoxyphenyl)methanesulfonamide] | ≤ 100 | ≤ 1000
COc1ccc(Nc2nc(Nc3cccc(CCCO)c3C)ncc2Cl)c(NS(C)(=O)=O)c1 [Example 97, N-(2-((5-chloro-2-((3-(3-hydroxypropyl)-2-methylphenyl)amino)pyrimidin-4-yl)amino)-5-methoxyphenyl)methanesulfonamide] | ≤ 100 | ≤ 1000
COc1ccc(Nc2nc(Nc3cc(OC)c(CCO)cc3OC)ncc2Cl)c(NS(C)(=O)=O)c1 [Example 105, N-(2-((5-chloro-2-((4-(2-hydroxyethyl)-2,5-dimethoxyphenyl)amino)pyrimidin-4-yl)amino)-5-methoxyphenyl)methanesulfonamide] | 100 to 1000 | ≤ 1000
COc1ccc(Nc2nc(Nc3cc(OCCO)ccc3OC)ncc2F)c(NS(C)(=O)=O)c1 [Example 106, N-(2-(5-fluoro-2-(5-(2-hydroxyethoxy)-2-methoxyphenylamino)pyrimidin-4-ylamino)-5-methoxyphenyl)methanesulfonamide] | 100 to 1000 | ≤ 1000
COc1ccc(Nc2nc(Nc3cc(OC)c(CC(N)=O)cc3OC)ncc2Cl)c(NS(C)(=O)=O)c1 [Example 107, 2-(4-((5-chloro-4-((4-methoxy-2-(methylsulfonamido)phenyl)amino)pyrimidin-2-yl)amino)-2,5-dimethoxyphenyl)acetamide] | 100 to 1000 | ≤ 1000
COc1ccc(Nc2nc(Nc3cc(OCC(N)=O)ccc3OC)ncc2Cl)c(NS(C)(=O)=O)c1 [Example 108, 2-(3-((5-chloro-4-((4-methoxy-2-(methylsulfonamido)phenyl)amino)pyrimidin-2-yl)amino)-4-methoxyphenoxy)acetamide] | ≤ 100 | ≤ 1000
